From patent US20120142682A1, “ANT[…] INHIBITING BACTERIAL MONO-ADP-RIBOSYLT[…]” (UNIVERSITY OF GUELPH, priority 2010, published 2012)

How the values were obtained:
C38 cells = assay: Mammalian C38 cell drug sensitivity assay (MTT); format: cell-based, Human; conditions: compound 50 μM
Description: The C38 cells were cultured in 25 cm^2 culture flasks containing LHC-8 media with 5% fetal bovine serum at 37° C. in 5% CO2 until 90-100% confluency. The cells were washed with phosphate-buffered saline (PBS) and then detached from the culture flask by treating the cells with Puck's Saline Solution containing 0.02% EDTA. The cell suspension was diluted to a final density of 1.0×10^5 cells/mL and 100-μL aliquots were used to seed a 96-well plate. The cells were then grown in the presence of 50 μM of inhibitor (nonpolar compounds required 0.5% DMSO for solubility).

WT ExoAc = WT ExoAc (Pseudomonas aeruginosa, UniProt P11439); assay: biochemical; format: binding, P. aeruginosa; conditions: read-out: Kd
[1] = tested on: Saccharomyces cerevisiae cells expressing the catalytic domain of P. aeruginosa ExoA (ExoAc); assay: Yeast-based compound screen; format: cell-based; conditions: compound 50 μM; w303 strain; growth restored
cholix toxin = cholix toxin (Vibrio cholerae, UniProt Q5EK40); assay: biochemical; format: biochemical; conditions: for IC50: read-out: IC50; for Ki: read-out: Ki
cholix toxin, sequence (Q5EK40 33-666 limits assumed): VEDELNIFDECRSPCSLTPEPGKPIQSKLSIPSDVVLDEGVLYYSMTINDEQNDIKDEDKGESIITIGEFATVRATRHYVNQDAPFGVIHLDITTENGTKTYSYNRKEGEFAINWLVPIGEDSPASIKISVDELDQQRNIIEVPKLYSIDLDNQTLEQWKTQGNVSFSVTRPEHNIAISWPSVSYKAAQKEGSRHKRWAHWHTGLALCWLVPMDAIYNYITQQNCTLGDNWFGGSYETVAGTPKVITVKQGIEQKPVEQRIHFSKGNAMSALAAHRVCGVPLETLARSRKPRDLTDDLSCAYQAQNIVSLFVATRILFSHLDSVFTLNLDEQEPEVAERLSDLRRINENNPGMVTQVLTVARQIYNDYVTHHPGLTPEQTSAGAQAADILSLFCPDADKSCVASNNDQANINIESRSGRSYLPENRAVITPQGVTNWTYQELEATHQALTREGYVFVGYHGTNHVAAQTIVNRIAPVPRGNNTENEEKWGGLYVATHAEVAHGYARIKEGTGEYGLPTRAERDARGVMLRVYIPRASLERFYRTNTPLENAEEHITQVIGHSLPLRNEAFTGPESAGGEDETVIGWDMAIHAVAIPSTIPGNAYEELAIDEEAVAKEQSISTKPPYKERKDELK

WT ExoAc, sequence (P11439 430-638 limits assumed): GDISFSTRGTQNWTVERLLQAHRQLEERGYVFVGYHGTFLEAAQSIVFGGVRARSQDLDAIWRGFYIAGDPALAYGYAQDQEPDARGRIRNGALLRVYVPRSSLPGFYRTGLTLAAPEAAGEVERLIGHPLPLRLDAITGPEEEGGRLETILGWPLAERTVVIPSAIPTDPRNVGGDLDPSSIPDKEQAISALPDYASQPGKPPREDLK

CN1CCN(C2CCC3NC(O)C4CCCCC4C3N2)CC1 (stereo not drawn) [Compound P3] was tested, and the “toxicity to C38 cells” value (C38 cells) was “toxic”, the Kd (WT ExoAc) was 1.47 ± 0.03 µM and the “Protection in Yeast” value [1] was “− (Compounds showing less than 5% growth were scored (−))”. The IC50 (cholix toxin) was 0.69 ± 0.13 µM and the Ki (cholix toxin) was 0.09 ± 0.017 µM.
With CN(C)CCCOc1ccc(-c2nc3cccc4c3n2CCNC4=O)cc1 [Compound P2] the “toxicity to C38 cells” value (C38 cells) was “toxic”, the Kd (WT ExoAc) was 0.26 ± 0.01 µM and the “Protection in Yeast” value [1] was “− (Compounds showing less than 5% growth were scored (−))”. It also gave an IC50 (cholix toxin) of 0.48 ± 0.04 µM and a Ki (cholix toxin) of 0.063 ± 0.005 µM.
For O=c1[nH]nc2c3c(cccc13)N=CN2 [Compound P7], the “toxicity to C38 cells” value (C38 cells) was “toxic”, the Kd (WT ExoAc) was 0.68 ± 0.04 µM and the “Protection in Yeast” value [1] was “− (Compounds showing less than 5% growth were scored (−))”. It also gave an IC50 (cholix toxin) of 0.908 ± 0.118 µM and a Ki (cholix toxin) of 0.118 ± 0.007 µM.
